Some test systems named below: NCI-H226; M14; KM12; SNB-75; HL-60; HCC 2998; HCT-15; OVCAR-8; PC-3; U-251; HOP-92; K562; LOX IMVI; SK-MEL-28; SK-MEL-5; A549; UACC-62; OVCAR-3; SNB-19; MOLT-4.
What all share (test): NCI tumour cell line growth inhibition, 48 h

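Following 48 hours of exposure in 96-well plates, responses at five concentrations were used to interpolate endpoints linearly. GI50 is the concentration that inhibits growth by half.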 Calls of active or inactive are those of the source. Cut-off read from the data, not from the text of the source: active = GI50 up to about 1.1 µM and inactive = higher. Where only a bound is given, the exact number is not on record here.

On to `FC(F)(F)c1ccc(Cc2nc3cc4ccccc4cc3[nH]2)cc1`, for which the GI50 was > 100 µM (inactive) in the test with NCI-H226; > 100 µM (inactive) with M14; > 100 µM (inactive) with KM12; 3.78 µM (inactive) in the test with SNB-75; 93.1 µM (inactive) with HL-60; > 100 µM (inactive) in the test with HCC 2998. The GI50 in the test on HCT-15 is more than 100 µM; in the test on OVCAR-8, > 100 µM (inactive); with PC-3, > 100 µM (inactive); in the test with U-251 it was 71.3 µM (inactive); with HOP-92, 2.11 µM (inactive); in the test on K562, 32.1 µM (inactive). The GI50 is 77.8 µM (inactive) in the test on LOX IMVI; > 100 µM (inactive) with SK-MEL-28; 54.6 µM (inactive) in the test on SK-MEL-5; > 100 µM (inactive) in the test on A549; > 100 µM (inactive) in the test on UACC-62; 57.4 µM (inactive) with OVCAR-3. Also, the GI50 in the test with SNB-19 was 45.7 µM (inactive).
With `CCN(CCCl)c1cc(CN(C)C)cc(NC(=O)c2ccc(C(=O)Nc3cccc(N(CCCl)NN)c3)cc2)c1`, the GI50 in the test on NCI-H226 was 0.145 µM (active); with M14, 0.0224 µM (active); in the test on KM12, 0.123 µM (active); in the test with SNB-75 it was 0.0336 µM (active); in the test with HL-60 it was < 0.01 µM (active); in the test with MOLT-4, < 0.01 µM (active). For the same compound, the GI50 with HCC 2998 is 0.0546 µM (active); in the test on HCT-15, 0.455 µM; in the test on OVCAR-8 it was 0.0246 µM (active); in the test on PC-3 it was 0.0142 µM (active); in the test on U-251, 0.0101 µM (active); in the test with HOP-92, 0.0789 µM (active). In addition, the GI50 with K562 was 0.014 µM (active); in the test on LOX IMVI, < 0.01 µM (active); with SK-MEL-28, 0.192 µM (active); with SK-MEL-5, 0.0461 µM (active); in the test on A549 it was 0.0209 µM (active); with UACC-62 it was < 0.01 µM (active). Besides, the GI50 in the test on SNB-19 was < 0.01 µM (active).
As for `CCOC(=O)c1nc2cc(C(F)(F)F)ccc2nc1Nc1ccc(OC)cc1`, the GI50 in the test on NCI-H226 was > 100 µM (inactive); with M14 it was > 100 µM (inactive); in the test with KM12, > 100 µM (inactive); in the test with SNB-75, 55.6 µM (inactive); in the test with HL-60, > 100 µM (inactive); in the test on MOLT-4, > 100 µM (inactive). Besides, the GI50 in the test with HCC 2998 was > 100 µM (inactive); in the test on HCT-15 it was more than 100 µM; in the test with OVCAR-8, > 100 µM (inactive); with PC-3, > 100 µM (inactive); with HOP-92, 36.6 µM (inactive); with LOX IMVI, 41.5 µM (inactive). For the same compound, the GI50 with SK-MEL-28 is > 100 µM (inactive); in the test on SK-MEL-5 it was > 100 µM (inactive); in the test on A549, > 100 µM (inactive); with UACC-62, > 100 µM (inactive); in the test with OVCAR-3 it was > 100 µM (inactive); in the test on SNB-19 it was 54.3 µM (inactive).
For the compound `COC(=NC(C)C)NC(C)C`, the GI50 with NCI-H226, in the test on M14, in the test with SNB-75, in the test on HL-60, with MOLT-4 and in the test with HCC 2998 was > 100 µM (inactive) throughout. In addition, the GI50 in the test with HCT-15 was more than 100 µM; in the test with OVCAR-8, > 100 µM (inactive); with PC-3, > 100 µM (inactive); with U-251 it was > 100 µM (inactive); in the test on HOP-92, > 100 µM (inactive); with K562 it was > 100 µM (inactive). The GI50 with LOX IMVI, in the test on SK-MEL-28, with SK-MEL-5, in the test with A549, in the test on UACC-62 and with SNB-19 was > 100 µM (inactive) in each case.
Take `O=C(c1ccco1)n1c2ccc(Br)cc2c2nc3ccccc3nc21`: the GI50 in the test on NCI-H226 is 68.4 µM (inactive); in the test on M14, > 100 µM (inactive); with KM12, 26.8 µM (inactive); in the test with SNB-75, 16.6 µM (inactive); with HL-60, > 100 µM (inactive); in the test on MOLT-4 it was 22 µM (inactive). Further, the GI50 with HCC 2998 was 61.1 µM (inactive); in the test with HCT-15, 48.2 µM; in the test on OVCAR-8 it was 35.2 µM (inactive); in the test with PC-3 it was 50.4 µM (inactive); in the test with U-251 it was 40.8 µM (inactive); with HOP-92 it was 30.5 µM (inactive). For the same compound, the GI50 with K562 was 38.4 µM (inactive); with LOX IMVI, 46.3 µM (inactive); in the test with SK-MEL-28, > 100 µM (inactive); with SK-MEL-5, > 100 µM (inactive); with UACC-62, 31.6 µM (inactive); in the test with OVCAR-3, 47.5 µM (inactive). In the test with SNB-19, the GI50 is 23.2 µM (inactive).
Regarding `C=CC(Br)(CBr)CCC1OC1(C)C` (stereo not drawn), the GI50 is 19.8 µM (inactive) in the test on NCI-H226; 13.9 µM (inactive) in the test on M14; 17.1 µM (inactive) in the test on KM12; 17.2 µM (inactive) in the test on SNB-75; 23.1 µM (inactive) with HL-60; 16.7 µM (inactive) with MOLT-4. The GI50 in the test on HCC 2998 is 18.9 µM (inactive); with PC-3, 16.5 µM (inactive); in the test on U-251, 17 µM (inactive); with HOP-92 it was 14.4 µM (inactive); in the test on K562 it was 37.9 µM (inactive); in the test with LOX IMVI, 5.47 µM (inactive). In addition, the GI50 with SK-MEL-28 was 16.3 µM (inactive); with SK-MEL-5, 14.2 µM (inactive); in the test with A549, 23.1 µM (inactive); in the test with OVCAR-3, 19.5 µM (inactive); in the test on SNB-19, 17.3 µM (inactive).
Consider `CC1=NN(C(=O)c2ccccc2O)C(=O)/C1=C/c1cccc(O)c1`, for which the GI50 in the test on NCI-H226 was 8.51 µM (inactive); in the test with M14, 0.446 µM (active); in the test with KM12, 0.389 µM (active); in the test with SNB-75, 0.258 µM (active); in the test on HL-60, 2.9 µM (inactive); in the test with HCC 2998 it was 12.6 µM (inactive). Further, the GI50 was 1.46 µM with HCT-15; 0.571 µM (active) with OVCAR-8; 3.19 µM (inactive) with PC-3; 0.277 µM (active) with U-251; 0.462 µM (active) in the test on HOP-92; 0.178 µM (active) in the test with K562. Besides, the GI50 was 0.597 µM (active) in the test on LOX IMVI; 50.6 µM (inactive) in the test with SK-MEL-28; 3.2 µM (inactive) with SK-MEL-5; 0.375 µM (active) with A549; 0.274 µM (active) in the test on UACC-62; 0.824 µM (active) in the test with OVCAR-3. In the test on SNB-19, the GI50 is 0.543 µM (active).
Consider `CCCC#CCOC(=O)c1cc([N+](=O)[O-])cc([N+](=O)[O-])c1`, for which the GI50 in the test on M14, in the test on KM12, with SNB-75, in the test on HL-60, in the test on MOLT-4 and in the test on HCC 2998 was > 100 µM (inactive) each time. In addition, the GI50 in the test with HCT-15 is more than 100 µM; in the test with OVCAR-8 it was > 100 µM (inactive); with PC-3, > 100 µM (inactive); in the test on U-251 it was > 100 µM (inactive); in the test with HOP-92 it was > 100 µM (inactive); in the test with K562 it was > 100 µM (inactive). Moreover, the GI50 was > 100 µM (inactive) in the test with LOX IMVI; > 100 µM (inactive) in the test with SK-MEL-28; 52 µM (inactive) in the test on SK-MEL-5; > 100 µM (inactive) with A549; > 100 µM (inactive) with UACC-62; > 100 µM (inactive) in the test with OVCAR-3. The GI50 in the test on SNB-19 is > 100 µM (inactive).
`CC1(C)CC(=O)C(=CNC(=S)c2ccccc2)C(=O)C1`: the GI50 is > 100 µM (inactive) in the test on NCI-H226; > 100 µM (inactive) in the test with M14; > 100 µM (inactive) in the test with KM12; > 100 µM (inactive) with SNB-75; 32.3 µM (inactive) with HL-60; 13.6 µM (inactive) with MOLT-4. In addition, the GI50 in the test on HCC 2998 was > 100 µM (inactive); in the test with HCT-15 it was more than 100 µM; with OVCAR-8 it was > 100 µM (inactive); in the test on PC-3 it was > 100 µM (inactive); with U-251, > 100 µM (inactive); with HOP-92, > 100 µM (inactive). Moreover, the GI50 in the test on LOX IMVI, in the test with SK-MEL-28, with SK-MEL-5, with A549, in the test on UACC-62 and in the test on OVCAR-3 was > 100 µM (inactive) each time. Besides, in the test with SNB-19, the GI50 is > 100 µM (inactive).
Regarding `Cc1ccc(Nc2c(C#N)[n+]([O-])c3cc(Cl)ccc3[n+]2[O-])cc1`, the GI50 with NCI-H226 is 28.2 µM (inactive); with M14, 30.3 µM (inactive); in the test with KM12, 12.6 µM (inactive); with SNB-75, 39.5 µM (inactive); with HL-60 it was 3.44 µM (inactive); in the test with MOLT-4, 4.8 µM (inactive). Besides, the GI50 in the test with HCC 2998 is 21.8 µM (inactive); with HCT-15, 5.15 µM; in the test on OVCAR-8, 11.7 µM (inactive); with PC-3 it was 9.66 µM (inactive); in the test with U-251 it was 29.3 µM (inactive); in the test on HOP-92, > 100 µM (inactive). Besides, the GI50 in the test with K562 was 11 µM (inactive); in the test on LOX IMVI it was 6.85 µM (inactive); with SK-MEL-28, > 100 µM (inactive); with A549, 23.8 µM (inactive); in the test on UACC-62, 20.7 µM (inactive); with OVCAR-3, 4.13 µM (inactive). Further, in the test with SNB-19, the GI50 was > 100 µM (inactive).
For `COc1ccc(COCC[C@H](C)OC2OC(CO[Si](C)(C)C(C)(C)C)C(OC(=O)CCCN=[N+]=[N-])C(OC(=O)CCCN=[N+]=[N-])C2OC(=O)CCCN=[N+]=[N-])cc1` (stereo partly drawn), the GI50 in the test on NCI-H226 was 8.39 µM (inactive); in the test on M14, 68.5 µM (inactive); in the test on KM12, 88.1 µM (inactive); with SNB-75 it was 14.2 µM (inactive); with HL-60, 10.6 µM (inactive); in the test on HCC 2998, 34.4 µM (inactive). For the same compound, the GI50 was 28.4 µM with HCT-15; 19.7 µM (inactive) in the test on OVCAR-8; 28.6 µM (inactive) with PC-3; 29.6 µM (inactive) with U-251; > 100 µM (inactive) in the test with HOP-92; 25.2 µM (inactive) in the test with LOX IMVI. The GI50 in the test on SK-MEL-28 was > 100 µM (inactive); in the test with SK-MEL-5, 9.64 µM (inactive); with A549, > 100 µM (inactive); in the test with UACC-62 it was 58.9 µM (inactive); in the test with OVCAR-3, 61.8 µM (inactive).

Source of the values: ChEMBL document CHEMBL1201862, “PubChem BioAssay data set” (2004).
